This note sets out measurements from patent US9103791B1, “Thallium fluorescent ion indicator and assay” (Vanderbilt University, priority 2012, dated 2015).

In data set [1] the test system is HEK-293 cells stably transfected with hERG potassium channels. The experiment in a line: "Wash" protocol thallium flux fluorescence assay. Format: cell-based. Particulars: range of dofetilide concentrations, slopes of normalized fluorescence 12-22 s, compared between indicators. The protocol: The wash protocol experiment was conducted as follows. To a 384-well, black-wall, clear bottom, poly-D-lysine coated plate, add 20 μl/well of α-MEM containing 10% fetal bovine serum and 1× glutaGRO (Cell Culture Medium) and a 1000 cell/μl suspension of HEK-293 cells stably transfected with hERG potassium channels (Cell Plate). Incubate the Cell Plate overnight in a 5% CO2 cell culture incubator at 37° C. Remove the Cell Culture Medium from the Cell Plate and replace it with 20 μl/well Hanks Balanced Salt Solution+20 mM HEPES pH 7.3 (Assay Buffer). Dissolve 25 μg of thallium ion indicator (also referred to as a “dye”) in 25 μl DMSO containing 7% (w/v) Pluronic F-127. Add 12.5 μl of the dissolved thallium ion indicator to 10 ml Assay Buffer (Dye Loading Solution). Add 20 μl/well of Dye Loading Solution to the Cell Plate. Incubate the Cell Plate containing Dye Loading Solution for 1 hour at room temperature. […] Analyze data representing the amplitude of the fluorescent signal for each well at each of the 120 time points acquired during the Data Acquisition Protocol using Microsoft Excel by first dividing the fluorescence values from each individual well at each time point by the fluorescent value for that well at the first time point (Normalized Fluorescence Values). Calculate slopes of the Normalized Fluorescence Values between the 12 second and 22 second time points (Slope Values). […]

Data set [2] has the same test system. As to the kind of experiment: "No-wash" protocol thallium flux fluorescence assay. It counts as cell-based. Particulars: no-wash protocol with 1.25 mM probenecid; range of dofetilide concentrations; compared to FluoZin-2, AM. The protocol: The no-wash protocol was conducted as follows. To a 384-well, black-wall, clear bottom, poly-D-lysine coated plate, add 20 μl/well of α-MEM containing 10% fetal bovine serum and 1× glutaGRO (Cell Culture Medium) and a 1000 cell/μl suspension of HEK-293 cells stably transfected with hERG potassium channels (Cell Plate). Incubate the Cell Plate overnight in a 5% CO2 cell culture incubator at 37° C. Remove the Cell Culture Medium from the Cell Plate and replace it with 20 μl/well Hanks Balanced Salt Solution+20 mM HEPES pH 7.3+1.25 mM Probenecid (sodium salt) (NW-Assay Buffer). Dissolve 25 μg thallium ion indicator (also referred to herein as a “dye”) in 25 μl DMSO containing 7% (w/v) Pluronic F-127. Add 12.5 μl of the dissolved thallium ion indicator to 10 ml Probenecid Assay Buffer (NW-Dye Loading Solution). Add 20 μl/well of Dye Loading Solution to the Cell Plate. […] Analyze data representing the amplitude of the fluorescent signal for each well at each of the 120 time points acquired during the Data Acquisition Protocol using Microsoft Excel by first dividing the fluorescence values from each individual well at each time point by the fluorescent value for that well at the first time point (Normalized Fluorescence Values). Calculate slopes of the Normalized Fluorescence Values between the 12 second and 22 second time points (Slope Values). […]

On to `COc1cc(NC(=O)c2ccc3c(c2)C(=O)OC32c3ccc(OC(C)=O)cc3Oc3cc(OC(C)=O)ccc32)ccc1N(CC(=O)OCOC(C)=O)CC(=O)OCOC(C)=O` [Example 1, bis(acetoxymethyl) 2,2′-((4-(3′,6′-diacetoxy-3-oxo-3H-spiro[isobenzofuran-1,9′-xanthen]-5-ylcarboxamido)-2-methoxyphenyl)azanediyl)diacetate], for which the “fluorescence results (indicator performance, FIG. 1)” value in data set [1] was “essentially indistinguishable”. Also, the “normalized signal amplitude (FIG. 2)” value in data set [2] was “substantial and unexpected improvement in normalized signal amplitude over FluoZin-2, AM”.
For the compound `COc1cc(NC(=O)c2ccc3c(c2)C(=O)OC32c3cc(F)c(OC(C)=O)cc3Oc3cc(OC(C)=O)c(F)cc32)ccc1N(CC(=O)OCOC(C)=O)CC(=O)OCOC(C)=O` [FluoZin-2, AM, reference compound], in data set [1], the “fluorescence results (indicator performance, FIG. 1)” value is “essentially indistinguishable”.
